Measured values reported in publication PMC2818863 (Bioorganic & medicinal chemistry, 2009).

Key:
Assay type in all cases: biochemical
[1] = target: PLAP (Homo sapiens, UniProt P05187); assay: PLAP luminescent assay; conditions: for IC50: PLAP potency (IC50), mean ± SD of three experiments, CDP-star 85 μM
[2] = target: GCAP (Homo sapiens, UniProt P10696); assay: GCAP luminescent assay; conditions: ratio IC50 GCAP / IC50 PLAP; for 12, 13, 20 from the separate-occasion values
[3] = target: T1, TNAP (Homo sapiens, UniProt P05186); assay: TNAP luminescent assay; conditions: ratio IC50 TNAP / IC50 PLAP
T1 sequence (P05186 18-502 limits assumed): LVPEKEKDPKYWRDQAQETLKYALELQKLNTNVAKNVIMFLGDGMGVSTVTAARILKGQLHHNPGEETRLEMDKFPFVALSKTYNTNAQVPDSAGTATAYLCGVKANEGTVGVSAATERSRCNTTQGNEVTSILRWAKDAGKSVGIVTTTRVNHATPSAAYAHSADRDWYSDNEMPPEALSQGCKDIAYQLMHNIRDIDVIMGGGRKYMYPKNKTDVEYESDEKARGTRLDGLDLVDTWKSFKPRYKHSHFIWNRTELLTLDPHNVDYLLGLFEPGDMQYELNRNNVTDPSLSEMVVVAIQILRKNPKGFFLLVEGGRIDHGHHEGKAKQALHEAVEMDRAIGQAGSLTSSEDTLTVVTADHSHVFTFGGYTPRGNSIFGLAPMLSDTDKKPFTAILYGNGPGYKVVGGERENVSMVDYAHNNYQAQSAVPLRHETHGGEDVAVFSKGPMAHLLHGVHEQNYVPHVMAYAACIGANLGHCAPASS

[4] = target: T2, IAP (Homo sapiens, UniProt P09923); assay: IAP luminescent assay; conditions: ratio IC50 IAP / IC50 PLAP
T2 sequence (P09923 20-503 limits assumed): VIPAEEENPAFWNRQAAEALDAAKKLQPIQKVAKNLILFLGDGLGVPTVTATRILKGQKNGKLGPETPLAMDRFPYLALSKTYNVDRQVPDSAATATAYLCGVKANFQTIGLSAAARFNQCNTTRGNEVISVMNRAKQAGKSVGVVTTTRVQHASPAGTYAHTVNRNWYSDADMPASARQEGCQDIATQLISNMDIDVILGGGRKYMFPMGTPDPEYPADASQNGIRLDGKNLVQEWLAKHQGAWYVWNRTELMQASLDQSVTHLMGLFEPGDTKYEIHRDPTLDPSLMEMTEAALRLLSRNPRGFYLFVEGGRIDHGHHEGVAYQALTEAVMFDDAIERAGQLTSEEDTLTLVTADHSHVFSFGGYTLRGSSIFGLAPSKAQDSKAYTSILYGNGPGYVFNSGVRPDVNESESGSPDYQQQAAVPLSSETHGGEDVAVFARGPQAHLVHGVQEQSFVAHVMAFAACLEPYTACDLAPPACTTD

Chain of PLAP (P05187 23-506 limits assumed): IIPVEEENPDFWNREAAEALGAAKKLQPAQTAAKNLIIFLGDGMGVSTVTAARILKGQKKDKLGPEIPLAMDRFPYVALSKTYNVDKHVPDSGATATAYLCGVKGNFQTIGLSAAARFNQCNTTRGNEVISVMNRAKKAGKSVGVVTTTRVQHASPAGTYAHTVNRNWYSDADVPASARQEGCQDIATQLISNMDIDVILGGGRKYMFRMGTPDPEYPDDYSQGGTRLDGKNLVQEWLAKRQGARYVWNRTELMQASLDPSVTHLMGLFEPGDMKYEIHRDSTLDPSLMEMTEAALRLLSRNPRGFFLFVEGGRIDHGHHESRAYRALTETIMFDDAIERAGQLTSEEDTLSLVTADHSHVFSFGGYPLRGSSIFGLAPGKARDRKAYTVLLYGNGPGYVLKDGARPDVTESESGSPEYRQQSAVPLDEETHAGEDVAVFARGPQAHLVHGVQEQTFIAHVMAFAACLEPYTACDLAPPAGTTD
Chain of GCAP (P10696 20-503 limits assumed): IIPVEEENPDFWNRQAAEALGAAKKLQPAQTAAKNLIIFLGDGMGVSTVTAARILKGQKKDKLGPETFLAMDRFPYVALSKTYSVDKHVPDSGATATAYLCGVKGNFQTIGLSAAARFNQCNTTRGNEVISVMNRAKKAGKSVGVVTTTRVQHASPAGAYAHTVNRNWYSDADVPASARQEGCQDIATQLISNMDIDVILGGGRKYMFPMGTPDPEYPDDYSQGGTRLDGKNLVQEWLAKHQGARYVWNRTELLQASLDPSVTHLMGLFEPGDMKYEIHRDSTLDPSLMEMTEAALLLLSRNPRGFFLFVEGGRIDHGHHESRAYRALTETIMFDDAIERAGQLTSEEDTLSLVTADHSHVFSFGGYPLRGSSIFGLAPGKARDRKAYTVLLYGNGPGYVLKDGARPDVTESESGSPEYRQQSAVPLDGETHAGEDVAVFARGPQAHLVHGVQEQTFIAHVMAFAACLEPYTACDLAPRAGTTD

Structure (SMILES) | IC50 [1] [µM] | PLAP inhibitory potency at 100 μM [1] | other results
Cc1cc(C)nc(SCC(=O)c2cccc(O)c2)n1 [Compound 4] | > 100 | no PLAP inhibitory potency | –
O=C(Cn1ccnc1)c1ccc(O)c(O)c1 [Compound 8] | ~3 | – | –
COc1ccc(C(=O)CSc2nc(C)cc(C)n2)cc1 [Compound 7] | > 100 | no PLAP inhibitory potency | –
Cc1nc(Br)cn1CC(=O)c1ccc(O)c(O)c1 [Compound 19] | 4.9 ± 0.6 | – | increase in PLAP inhibitory potency ([1]; 19 relative to 16): 3 fold
CCc1nccn1CC(=O)c1ccc(O)c(O)c1 [Compound 13] | ~3 | – | Selectivity (GCAP/PLAP) [2]: ^* (2.1)
Cc1cc(C)nc(SCC(=O)c2ccc(O)cc2)n1 [Compound 3] | > 100 | no PLAP inhibitory potency | –
Cc1cc(C(=O)NCCc2ccc(O)c(O)c2)oc1C [Compound 26] | > 100 | – | –
O=C(CSc1nnc(-c2ccccc2)[nH]1)c1ccc(O)c(O)c1 [Compound 28] | > 100 | – | –
Cc1cc2ncn(CC(=O)c3ccc(O)c(O)c3)c2cc1C [Compound 18] | – | – | Selectivity (TNAP/PLAP) [3]: > 17 fold
Cc1cnn(CC(=O)c2ccc(O)c(O)c2)c1 [Compound 10] | 2.7 ± 0.1 | – | Selectivity (IAP/PLAP) [4]: > 25 fold
Cc1cc(C(=O)NCc2ccc(O)c(O)c2)oc1C [Compound 25] | > 100 | – | –
COc1ccc(-n2nnnc2SCC(=O)c2ccc(O)c(O)c2)cc1 [Compound 32] | 2 ± 0.1 | – | –
Cc1cc(C)nc(SCC(=O)c2ccc3c(c2)OCO3)n1 [Compound 6] | > 100 | no PLAP inhibitory potency | –
Cn1c(SCC(=O)c2ccccc2)nnc1-c1cccc(N)c1 [Compound 29] | > 100 | – | –
Cc1nccn1CC(=O)c1ccc(O)c(O)c1 [Compound 12] | 3.3 ± 0.2 | – | –
COc1cc(C(=O)CSc2nc(C)cc(C)n2)ccc1O [Compound 5] | > 100 | no PLAP inhibitory potency | –
